# Test results: the NIST ThermoML archive (doi:10.1016/j.jct.2012.02.036)
# “And” between values parts separate entries of the source, which are not always exact repeats. Equal entries are not always repeated. ± gives the expanded uncertainty stated by the source.
# How the values were obtained:
# [1] = Liquid; for mass density: Vibrating tube method
# [2] = xn = mol fraction of the nth substance listed; details: 101 kPa, Liquid, x2 = 0; for mass density: Vibrating tube method
# [3] = 293.15 K, 101.33 kPa, Capillary tube (Ostwald / Ubbelohde) method
# [4] = 303.15 K, 101.33 kPa, Capillary tube (Ostwald / Ubbelohde) method
# [5] = 313.15 K, 101.33 kPa, Capillary tube (Ostwald / Ubbelohde) method
# [6] = 323.15 K, 101.33 kPa, Capillary tube (Ostwald / Ubbelohde) method
# [7] = 333.15 K, 101.33 kPa, Capillary tube (Ostwald / Ubbelohde) method
Structure (SMILES),"viscosity ([1]; 293.15 K, 101 kPa)","mass density ([1]; 293.15 K, 101 kPa)","viscosity [1, 3]","mass density ([1]; 293.15 K, 101.33 kPa)","viscosity ([1]; 303.15 K, 101 kPa)","mass density ([1]; 303.15 K, 101 kPa)","viscosity [1, 4]","mass density ([1]; 303.15 K, 101.33 kPa)","viscosity ([1]; 313.15 K, 101 kPa)","mass density ([1]; 313.15 K, 101 kPa)","viscosity [1, 5]","mass density ([1]; 313.15 K, 101.33 kPa)","viscosity ([1]; 323.15 K, 101 kPa)","mass density ([1]; 323.15 K, 101 kPa)","viscosity [1, 6]","mass density ([1]; 323.15 K, 101.33 kPa)","viscosity ([1]; 333.15 K, 101 kPa)","mass density ([1]; 333.15 K, 101 kPa)","viscosity [1, 7]","mass density ([1]; 333.15 K, 101.33 kPa)",also measured
NCCCO [3-amino-1-propanol],40.45 ± 1.7 mPa·s and 40.46 ± 1.7 mPa·s,987.65 ± 0.29 kg/m3,40.42 ± 0.2 mPa·s,987.55 ± 0.21 kg/m3,23.98 ± 1 mPa·s,979.65 ± 0.29 kg/m3,23.87 ± 0.12 mPa·s,979.53 ± 0.22 kg/m3,15.31 ± 0.68 mPa·s,971.61 ± 0.29 kg/m3,15.27 ± 0.078 mPa·s,971.47 ± 0.22 kg/m3,10.22 ± 0.48 mPa·s,963.52 ± 0.29 kg/m3,10.22 ± 0.054 mPa·s,963.37 ± 0.22 kg/m3,6.961 ± 0.35 mPa·s and 6.962 ± 0.35 mPa·s,955.38 ± 0.29 kg/m3,7.123 ± 0.04 mPa·s,955.22 ± 0.22 kg/m3,
CC(C)O [propan-2-ol] + NCCCO,,,,,,,,,,,,,,,,,,,,,mass density ([2]; 293.15 K): 785.36 ± 0.24 kg/m3; viscosity ([2]; 293.15 K): 2.318 ± 0.13 mPa·s; mass density ([2]; 303.15 K): 776.87 ± 0.24 kg/m3; viscosity ([2]; 303.15 K): 1.596 ± 0.094 mPa·s; mass density ([2]; 313.15 K): 768.07 ± 0.24 kg/m3; viscosity ([2]; 313.15 K): 0.996 ± 0.062 mPa·s; mass density ([2]; 323.15 K): 758.89 ± 0.24 kg/m3; mass density ([2]; 333.15 K): 749.25 ± 0.25 kg/m3
CC(C)CO [2-methyl-1-propanol],4.197 ± 0.23 mPa·s,801.8 ± 0.2 kg/m3,4.085 ± 0.025 mPa·s,801.75 ± 0.24 kg/m3,2.873 ± 0.16 mPa·s,,2.877 ± 0.018 mPa·s,793.99 ± 0.24 kg/m3,1.926 ± 0.11 mPa·s,,2.091 ± 0.013 mPa·s,786.04 ± 0.24 kg/m3,1.232 ± 0.074 mPa·s,,1.576 ± 0.01 mPa·s,777.85 ± 0.24 kg/m3,0.665 ± 0.044 mPa·s,,1.124 ± 0.007 mPa·s,769.36 ± 0.24 kg/m3,
CC(C)CO [2-methyl-1-propanol] + NCCCO,,,,,,,,,,,,,,,,,,,,,mass density ([2]; 293.15 K): 801.8 ± 0.2 kg/m3; viscosity ([2]; 293.15 K): 4.197 ± 0.23 mPa·s; mass density ([2]; 303.15 K): 793.99 ± 0.24 kg/m3; viscosity ([2]; 303.15 K): 2.873 ± 0.16 mPa·s; mass density ([2]; 313.15 K): 786.04 ± 0.24 kg/m3; viscosity ([2]; 313.15 K): 1.926 ± 0.11 mPa·s; mass density ([2]; 323.15 K): 777.85 ± 0.24 kg/m3; viscosity ([2]; 323.15 K): 1.232 ± 0.074 mPa·s; mass density ([2]; 333.15 K): 769.36 ± 0.24 kg/m3
CC(C)O [propan-2-ol],2.318 ± 0.13 mPa·s,785.36 ± 0.24 kg/m3,2.362 ± 0.015 mPa·s,785.25 ± 0.24 kg/m3,1.596 ± 0.094 mPa·s,776.87 ± 0.24 kg/m3,1.769 ± 0.011 mPa·s,776.78 ± 0.24 kg/m3,0.996 ± 0.062 mPa·s,768.07 ± 0.24 kg/m3,1.33 ± 0.0086 mPa·s,767.98 ± 0.24 kg/m3,,758.89 ± 0.24 kg/m3,1.014 ± 0.0068 mPa·s,758.82 ± 0.25 kg/m3,,749.25 ± 0.25 kg/m3,,749.2 ± 0.25 kg/m3,
